Source: PubChem BioAssay (NCI)
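Five compound concentrations were applied to cells in 96-well plates for 48 hours; endpoints were derived by simple linear interpolation of the resulting dose-response curve. At the GI50, growth is halved. TGI is the concentration that stops growth completely.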

Assays:
Assay in all cases: NCI tumour cell line growth inhibition, 48 h
DMS 273 small cell lung = tested on: DMS 273 small cell lung
HCC-2998 colon = tested on: HCC-2998 colon
UO-31 renal = tested on: UO-31 renal
PC-3 prostate = tested on: PC-3 prostate
K-562 leukemia = tested on: K-562 leukemia
OVCAR-3 ovarian = tested on: OVCAR-3 ovarian
LOX IMVI melanoma = tested on: LOX IMVI melanoma
IGROV1 ovarian = tested on: IGROV1 ovarian
OVCAR-8 ovarian = tested on: OVCAR-8 ovarian
A549 NSCLC = tested on: A549 NSCLC
MDA-N = tested on: MDA-N
TK-10 renal = tested on: TK-10 renal
SR leukemia = tested on: SR leukemia
OVCAR-4 ovarian = tested on: OVCAR-4 ovarian
NCI-H226 lung = tested on: NCI-H226 lung
HCT-116 colon = tested on: HCT-116 colon
HOP-92 NSCLC = tested on: HOP-92 NSCLC
MDA-MB-231 breast = tested on: MDA-MB-231 breast
ACHN renal = tested on: ACHN renal
SK-OV-3 ovarian = tested on: SK-OV-3 ovarian
LXFL 529 NSCLC = tested on: LXFL 529 NSCLC
SW-620 colon = tested on: SW-620 colon
M19-MEL melanoma = tested on: M19-MEL melanoma
RXF-631 renal = tested on: RXF-631 renal
MOLT-4 leukemia = tested on: MOLT-4 leukemia
MDA-MB-435 = tested on: MDA-MB-435
HOP-18 NSCLC = tested on: HOP-18 NSCLC
CAKI-1 renal = tested on: CAKI-1 renal
SF-295 CNS = tested on: SF-295 CNS
RPMI-8226 leukemia = tested on: RPMI-8226 leukemia
SNB-19 CNS = tested on: SNB-19 CNS
786-0 renal = tested on: 786-0 renal
UACC-257 melanoma = tested on: UACC-257 melanoma
CCRF-CEM leukemia = tested on: CCRF-CEM leukemia
HOP-62 NSCLC = tested on: HOP-62 NSCLC
COLO 205 colon = tested on: COLO 205 colon
HS 578T breast = tested on: HS 578T breast
RXF 393 renal = tested on: RXF 393 renal
SK-MEL-5 melanoma = tested on: SK-MEL-5 melanoma
SF-539 CNS = tested on: SF-539 CNS
SK-MEL-2 melanoma = tested on: SK-MEL-2 melanoma
MCF7 breast = tested on: MCF7 breast
DLD-1 colon = tested on: DLD-1 colon
DU-145 prostate = tested on: DU-145 prostate
NCI-H460 lung = tested on: NCI-H460 lung
A498 renal = tested on: A498 renal
SNB-75 CNS = tested on: SNB-75 CNS
SN12C renal = tested on: SN12C renal
EKVX NSCLC = tested on: EKVX NSCLC
HCT-15 colon = tested on: HCT-15 colon
SNB-78 CNS = tested on: SNB-78 CNS
UACC-62 melanoma = tested on: UACC-62 melanoma
NCI-H23 lung = tested on: NCI-H23 lung
NCI-H522 lung = tested on: NCI-H522 lung
OVCAR-5 ovarian = tested on: OVCAR-5 ovarian
SK-MEL-28 melanoma = tested on: SK-MEL-28 melanoma
BT-549 breast = tested on: BT-549 breast
M14 melanoma = tested on: M14 melanoma
T-47D breast = tested on: T-47D breast
KM12 colon = tested on: KM12 colon
NCI/ADR-RES ovarian = tested on: NCI/ADR-RES ovarian
MALME-3M melanoma = tested on: MALME-3M melanoma
SF-268 CNS = tested on: SF-268 CNS
U251 CNS = tested on: U251 CNS
HT29 colon = tested on: HT29 colon
HL-60(TB) leukemia = tested on: HL-60(TB) leukemia
KM20L2 colon = tested on: KM20L2 colon
XF 498 CNS = tested on: XF 498 CNS
DMS 114 small cell lung = tested on: DMS 114 small cell lung

C/C(N=NC(=S)N(C)C)=C1\C=CC=CN1O
> 52.2 µM: TGI (786-0 renal)
> 21.2 µM: TGI (DLD-1 colon)
> 53 µM: TGI (HL-60(TB) leukemia)
> 100 µM: TGI (DMS 273 small cell lung) | TGI (PC-3 prostate) | TGI (K-562 leukemia) | TGI (OVCAR-3 ovarian) | TGI (LOX IMVI melanoma) | TGI (IGROV1 ovarian) | TGI (A549 NSCLC) | TGI (MDA-N) | TGI (TK-10 renal) | TGI (SR leukemia) | TGI (OVCAR-4 ovarian) | TGI (NCI-H226 lung) | TGI (HCT-116 colon) | TGI (HOP-92 NSCLC) | TGI (MDA-MB-231 breast) | TGI (ACHN renal) | TGI (SK-OV-3 ovarian) | TGI (LXFL 529 NSCLC) | TGI (SW-620 colon) | TGI (M19-MEL melanoma) | TGI (RXF-631 renal) | TGI (MDA-MB-435) | TGI (HOP-18 NSCLC) | TGI (CAKI-1 renal) | TGI (SF-295 CNS) | TGI (SNB-19 CNS) | TGI (UACC-257 melanoma) | TGI (COLO 205 colon) | TGI (HS 578T breast) | TGI (RXF 393 renal) | TGI (SK-MEL-5 melanoma) | TGI (SF-539 CNS) | TGI (MCF7 breast) | TGI (DU-145 prostate) | TGI (NCI-H460 lung) | TGI (A498 renal) | TGI (SNB-75 CNS) | TGI (SN12C renal) | TGI (EKVX NSCLC) | TGI (SNB-78 CNS) | TGI (NCI-H23 lung) | TGI (OVCAR-5 ovarian) | TGI (SK-MEL-28 melanoma) | TGI (BT-549 breast) | TGI (M14 melanoma) | TGI (T-47D breast) | TGI (KM12 colon) | TGI (SF-268 CNS) | TGI (U251 CNS) | TGI (HT29 colon) | TGI (KM20L2 colon)
> 47.3 µM: TGI (HOP-62 NSCLC)
> 56.2 µM: TGI (SK-MEL-2 melanoma) | TGI (NCI-H522 lung)
> 93 µM: TGI (UACC-62 melanoma)
> 84.1 µM: TGI (HCT-15 colon)
> 70.4 µM: TGI (RPMI-8226 leukemia)
> 63.5 µM: TGI (CCRF-CEM leukemia)
> 44.9 µM: TGI (HCC-2998 colon)
> 97.4 µM: TGI (UO-31 renal)
21.1 µM: TGI (NCI/ADR-RES ovarian)
> 56.4 µM: TGI (MOLT-4 leukemia)
< 0.1 µM: GI50 (SF-539 CNS)
> 67.2 µM: TGI (MALME-3M melanoma)
> 94.1 µM: TGI (OVCAR-8 ovarian)

O=c1c2cc(Br)cc(Br)c2nc(CCCl)n1CCO
93.5 µM: TGI (SNB-75 CNS)
> 100 µM: TGI (HCC-2998 colon) | TGI (UO-31 renal) | TGI (K-562 leukemia) | TGI (OVCAR-3 ovarian) | TGI (LOX IMVI melanoma) | TGI (IGROV1 ovarian) | TGI (OVCAR-8 ovarian) | TGI (A549 NSCLC) | TGI (TK-10 renal) | TGI (OVCAR-4 ovarian) | TGI (NCI-H226 lung) | TGI (HCT-116 colon) | TGI (HOP-92 NSCLC) | TGI (ACHN renal) | TGI (SK-OV-3 ovarian) | TGI (LXFL 529 NSCLC) | TGI (SW-620 colon) | TGI (M19-MEL melanoma) | TGI (RXF-631 renal) | TGI (MOLT-4 leukemia) | TGI (CAKI-1 renal) | TGI (SF-295 CNS) | TGI (RPMI-8226 leukemia) | TGI (786-0 renal) | TGI (UACC-257 melanoma) | TGI (CCRF-CEM leukemia) | TGI (HOP-62 NSCLC) | TGI (COLO 205 colon) | TGI (RXF 393 renal) | TGI (SK-MEL-5 melanoma) | TGI (SF-539 CNS) | TGI (SK-MEL-2 melanoma) | TGI (DLD-1 colon) | TGI (NCI-H460 lung) | TGI (A498 renal) | TGI (SN12C renal) | TGI (EKVX NSCLC) | TGI (SNB-78 CNS) | TGI (UACC-62 melanoma) | TGI (NCI-H23 lung) | TGI (NCI-H522 lung) | TGI (OVCAR-5 ovarian) | TGI (XF 498 CNS) | TGI (SK-MEL-28 melanoma) | TGI (M14 melanoma) | TGI (KM12 colon) | TGI (MALME-3M melanoma) | TGI (SF-268 CNS) | TGI (U251 CNS) | TGI (HT29 colon) | TGI (HL-60(TB) leukemia) | TGI (KM20L2 colon) | TGI (DMS 114 small cell lung)
